Patent US11267812B2 (Mirati Therapeutics, Inc., priority 2016, dated 2022)

Test system: Phospho-ERK in NCI-H358 cells expressing KRas G12C
Assay: Cellular inhibition of KRas G12C by Phospho-ERK measurement in NCI-H358 cells
Assay type: cell-based
Settings: Homo sapiens; NCI-H358 cells, 3 hours compound treatment; read-out: IC50 (pERK(Thr202/Tyr204) normalized with GAPDH)
Protocol: The cellular inhibition of KRAs G12C by exemplary compounds of the present invention was determined by measuring the amount of a downstream marker of KRas activity, phosphorylated ERK (“Phospho-ERK”).
NCI-H358 cells (ATCC CRL-5807) express KRas G12C and were grown in RPMI medium supplemented with 10% fetal bovine serum, penicillin/streptomycin and 10 mM HEPES. Cells were plated in poly-D-Lysine coated 96-well plates at a concentration of 50,000 cells/well and allowed to attach for 8-12 hours. Diluted compounds were then added at a final concentration of 0.5% DMSO. After 3 hours, the medium was removed, 150 μL of 4% formaldehyde was added and the plates were incubated for 20 minutes. The plates were washed with PBS, and permeabilized using 150 μL of ice cold 100% methanol for 10 minutes. Non-specific antibody binding to the plates was blocked using 100 μL Licor Blocking Buffer (Li-Cor Biotechnology, Lincoln Nebr.) for 1 hour at room temperature. Positive control samples and samples lacking cells were parallel processed with test samples as standards.
The amount Phospho-ERK was determined using an antibody specific for the phosphorylated form of ERK and compared to the amount of GAPDH. Primary antibodies used for detection were added as follows: Phospho-ERK (Cell Signaling cs9101) diluted 1:500 and GAPDH (Millipore MAB374) diluted 1:5000 in Licor block+0.05% Tween 20. The plates were incubated for 2 hours at room temperature. The plates were washed with PBS+0.05% Tween 20.
Secondary antibodies used to visualize primary antibodies were added as follows: Anti-rabbit-680 diluted 1:1000 and Anti-mouse-800 diluted 1:1000 in Licor Block+0.050 Tween 20 and incubated for 1 hour at room temperature. The plates were washed with PBS+0.05% o Tween 20. A100 L aliquot of PBS was added to each well and the plates were read on a LICOR AERIUS plate reader.
The pERK(Thr202/Tyr204) signal was normalized with the GAPDH signal and percent of DMSO control values were calculated. IC50 values were generated using a 4 parameter fit of the dose response curve. Key: “A”≥0.001-≤1 μM; “B”[…] and ND=not determined.

| Structure (SMILES) | IC50 [nM] |
| --- | --- |
| C=CC(=O)N1CCN(c2nc(OC[C@H]3CCCN3C)nc3c2CCN(c2c(C(F)(F)F)ccc4[nH]ncc24)C3)CC1CC#N (stereo partly drawn) [Example 243, 2-[4-[2-[[(2R)-1-methylpyrrolidin-2-yl]methoxy]-7-[5-(trifluoromethyl)-1H-indazol-4-yl]-6,8-dihydro-5H-pyrido[3,4-d]pyrimidin-4-yl]-1-prop-2-enoyl-piperazin-2-yl]acetonitrile] | 1 to 1000 |
| C=CC(=O)N1CCN(c2nc(OC[C@@H]3CN(C)CCO3)nc3c2CCN(c2cccc4ccccc24)C3)CC1CC#N (stereo partly drawn) [Example 271, 2-(1-acryloyl-4-(2-(((S)-4-methylmorpholin-2-yl)methoxy)-7-(naphthalen-1-yl)-5,6,7,8-tetrahydropyrido[3,4-d]pyrimidin-4-yl)piperazin-2-yl)acetonitrile] | 1 to 1000 |
| C=CC(=O)N1CCN(c2nc(OC[C@@H]3CCCN3C)nc3c2CCN(c2cccc4cc(F)ccc24)C3)CC1CC#N (stereo partly drawn) [Example 259, 2-[4-[7-(6-fluoro-1-naphthyl)-2-[[(2S)-1-methylpyrrolidin-2-yl]methoxy]-6,8-dihydro-5H-pyrido[3,4-d]pyrimidin-4-yl]-1-prop-2-enoyl-piperazin-2-yl]acetonitrile] | 1 to 1000 |
| C=CC(=O)N1CCN(c2nc(OC[C@@H]3CCN(C)C3)nc3c2CCN(c2cc(O)cc4ccccc24)C3)CC1CC#N (stereo partly drawn) [Example 179, 2-[4-[7-(3-hydroxy-1-naphthyl)-2-[[(3R)-1-methylpyrrolidin-3-yl]methoxy]-6,8-dihydro-5H-pyrido[3,4-d]pyrimidin-4-yl]-1-prop-2-enoyl-piperazin-2-yl]acetonitrile] | 1 to 1000 |
| C=CC(=O)N1CCN(c2nc(OC[C@H]3CN(C)CCN3)nc3c2CCN(c2cccc4ccccc24)C3)CC1CC#N (stereo partly drawn) [Example 224, 2-(1-acryloyl-4-(2-(((R)-4-methylpiperazin-2-yl)methoxy)-7-(naphthalen-1-yl)-5,6,7,8-tetrahydropyrido[3,4-d]pyrimidin-4-yl)piperazin-2-yl)acetonitrile] | 1 to 1000 |
| C=CC(=O)N1CCN(c2nc(OC[C@@H]3CCCN3C)nc3c2CCN(c2cc(O)cc4ccccc24)C3)C(CO)C1 (stereo partly drawn) [Example 169, 1-[3-(hydroxymethyl)-4-[7-(3-hydroxy-1-naphthyl)-2-[[(2S)-1-methylpyrrolidin-2-yl]methoxy]-6,8-dihydro-5H-pyrido[3,4-d]pyrimidin-4-yl]piperazin-1-yl]prop-2-en-1-one] | 1 to 1000 |
| C=CC(=O)N1CCN(c2nc(OC[C@@H]3COCCN3C)nc3c2CCN(c2cccc4ccccc24)C3)CC1CC#N (stereo partly drawn) [Example 272, 2-(1-acryloyl-4-(2-(((S)-4-methylmorpholin-3-yl)methoxy)-7-(naphthalen-1-yl)-5,6,7,8-tetrahydropyrido[3,4-d]pyrimidin-4-yl)piperazin-2-yl)acetonitrile] | 1 to 1000 |
| C=CC(=O)N1CCN(c2nc(OC[C@@H]3CCCN3C)nc3c2CCN(c2cncc4ccccc24)C3)CC1CC#N (stereo partly drawn) [Example 260, 2-[4-[7-(4-isoquinolyl)-2-[[(2S)-1-methylpyrrolidin-2-yl]methoxy]-6,8-dihydro-5H-pyrido[3,4-d]pyrimidin-4-yl]-1-prop-2-enoyl-piperazin-2-yl]acetonitrile] | 1 to 1000 |
| C=CC(=O)N1CCN(c2nc(OC[C@@H]3CCCN3C)nc3c2CCN(c2cnccc2C(F)(F)F)C3)CC1CC#N (stereo partly drawn) [Example 212, 2-(1-acryloyl-4-(2-(((S)-1-methylpyrrolidin-2-yl)methoxy)-7-(4-(trifluoromethyl)pyridin-3-yl)-5,6,7,8-tetrahydropyrido[3,4-d]pyrimidin-4-yl)piperazin-2-yl)acetonitrile] | 1 to 1000 |
| C=CC(=O)N1CCN(c2nc(OC[C@@H]3CCCN3C)nc3c2CCN(c2cccc(Cl)c2C(F)(F)F)C3)CC1CC#N (stereo partly drawn) [Example 277, 2-(1-acryloyl-4-(7-(3-chloro-2-(trifluoromethyl)phenyl)-2-(((S)-1-methylpyrrolidin-2-yl)methoxy)-5,6,7,8-tetrahydropyrido[3,4-d]pyrimidin-4-yl)piperazin-2-yl)acetonitrile] | 1 to 1000 |
| C=CC(=O)N1CCN(c2nc(OC[C@@H]3CCCN3C)nc3c2CCN(c2c(C(F)(F)F)ccc4[nH]ncc24)C3)CC1 [Example 156, (S)-1-(4-(2-((1-methylpyrrolidin-2-yl)methoxy)-7-(5-(trifluoromethyl)-1H-indazol-4-yl)-5,6,7,8-tetrahydropyrido[3,4-d]pyrimidin-4-yl)piperazin-1-yl)prop-2-en-1-one] | 1 to 1000 |
| C=CC(=O)N1CCN(c2nc(OCCCCN(C)C)nc3c2CCN(c2cc(O)cc4ccccc24)C3)CC1 [Example 40, 1-(4-(2-(4-(dimethylamino)butoxy)-7-(3-hydroxynaphthalen-1-yl)-5,6,7,8-tetrahydropyrido[3,4-d]pyrimidin-4-yl)piperazin-1-yl)prop-2-en-1-one] | 1 to 1000 |
| C=CC(=O)N1CCN(c2nc(OC[C@@H]3CCCN3C)nc3c2CCN(c2ccc(F)cc2C(F)(F)F)C3)CC1CC#N (stereo partly drawn) [Example 276, 2-(1-acryloyl-4-(7-(4-fluoro-2-(trifluoromethyl)phenyl)-2-(((S)-1-methylpyrrolidin-2-yl)methoxy)-5,6,7,8-tetrahydropyrido[3,4-d]pyrimidin-4-yl)piperazin-2-yl)acetonitrile] | 1 to 1000 |
| C=CC(=O)N1CCN(c2nc(OC[C@@H]3CN(C)CCN3)nc3c2CCN(c2cccc4ccccc24)C3)CC1CC#N (stereo partly drawn) [Example 223, 2-(1-acryloyl-4-(2-(((S)-4-methylpiperazin-2-yl)methoxy)-7-(naphthalen-1-yl)-5,6,7,8-tetrahydropyrido[3,4-d]pyrimidin-4-yl)piperazin-2-yl)acetonitrile] | 1 to 1000 |
| C=CC(=O)N1CCN(c2nc(OCCN3CCC(C)CC3)nc3c2CCN(c2cc(O)cc4ccccc24)C3)CC1 [Example 92, 1-(4-(7-(3-hydroxynaphthalen-1-yl)-2-(2-(4-methylpiperidin-1-yl)ethoxy)-5,6,7,8-tetrahydropyrido[3,4-d]pyrimidin-4-yl)piperazin-1-yl)prop-2-en-1-one] | 1 to 1000 |
| C=CC(=O)N1CCN(c2nc(OC[C@@H]3CCCN3CCOC)nc3c2CCN(c2cccc4ccccc24)C3)CC1CC#N (stereo partly drawn) [Example 266, 2-(1-acryloyl-4-(2-(((S)-1-(2-methoxyethyl)pyrrolidin-2-yl)methoxy)-7-(naphthalen-1-yl)-5,6,7,8-tetrahydropyrido[3,4-d]pyrimidin-4-yl)piperazin-2-yl)acetonitrile] | 1 to 1000 |
| C=CC(=O)N1CCN(c2nc(OC[C@H]3CCCN3C)nc3c2CCN(c2cc(O)cc4ccccc24)C3)[C@@H](C)C1 [Example 203, 1-((S)-4-(7-(3-hydroxynaphthalen-1-yl)-2-(((R)-1-methylpyrrolidin-2-yl)methoxy)-5,6,7,8-tetrahydropyrido[3,4-d]pyrimidin-4-yl)-3-methylpiperazin-1-yl)prop-2-en-1-one] | 1 to 1000 |
| CN(C)C/C=C/C(=O)N1CCN(c2nc(OC[C@@H]3CCCN3C)nc3c2CCN(c2cccc4ccccc24)C3)C[C@@H]1CC#N [Example 235, 2-((S)-1-((E)-4-(dimethylamino)but-2-enoyl)-4-(2-(((S)-1-methylpyrrolidin-2-yl)methoxy)-7-(naphthalen-1-yl)-5,6,7,8-tetrahydropyrido[3,4-d]pyrimidin-4-yl)piperazin-2-yl)acetonitrile] | 1 to 1000 |
| C=CC(=O)N1CCN(c2nc(OC[C@@H]3CCCN3C)nc3c2CCN(c2cc(F)ccc2OC(F)(F)F)C3)CC1CC#N (stereo partly drawn) [Example 225, 2-(1-acryloyl-4-(7-(5-fluoro-2-(trifluoromethoxy)phenyl)-2-(((S)-1-methylpyrrolidin-2-yl)methoxy)-5,6,7,8-tetrahydropyrido[3,4-d]pyrimidin-4-yl)piperazin-2-yl)acetonitrile] | 1 to 1000 |
| C=CC(=O)N1CCN(c2nc(OCCN(C)C)nc3c2CCN(c2cc(O)cc4ccccc24)C3)[C@@H](C)C1 [Example 116, (S)-1-(4-(2-(2-(dimethylamino)ethoxy)-7-(3-hydroxynaphthalen-1-yl)-5,6,7,8-tetrahydropyrido[3,4-d]pyrimidin-4-yl)-3-methylpiperazin-1-yl)prop-2-en-1-one] | 1 to 1000 |
| C=CC(=O)N1CCN(c2nc(OC[C@@H]3C[C@H](OC)CN3C)nc3c2CCN(c2cccc4ccccc24)C3)CC1CC#N (stereo partly drawn) [Example 222, 2-(1-acryloyl-4-(2-(((2S,4S)-4-methoxy-1-methylpyrrolidin-2-yl)methoxy)-7-(naphthalen-1-yl)-5,6,7,8-tetrahydropyrido[3,4-d]pyrimidin-4-yl)piperazin-2-yl)acetonitrile] | 1 to 1000 |
| C=CC(=O)N1CCN(c2nc(OC[C@@H]3CCCN3C)nc3c2CCN(c2ccccc2Cl)C3)CC1CC#N (stereo partly drawn) [Example 229, 2-(1-acryloyl-4-(7-(2-chlorophenyl)-2-(((S)-1-methylpyrrolidin-2-yl)methoxy)-5,6,7,8-tetrahydropyrido[3,4-d]pyrimidin-4-yl)piperazin-2-yl)acetonitrile] | 1 to 1000 |
